Measured values from article PMC10945555, “Improving Activity of New Arylurea Agents against Multidrug-Resistant and Biofilm-Producing Staphylococcus epidermidis” (ACS Medicinal Chemistry Letters, 2024).

Assay: Microsomal stability assay
Conditions: RLM, 60 min of incubation
Description: were treated with 100 μL of tested compound at the final concentration of 200 μM, and incubated at 37 °C for 1 h. Triton X-100 (2%) and PBS were used as positive and negative controls, respectively. After centrifugation at 3000 rpm for 3 min, 100 μL of the supernatants were transferred to a 96 well microtiter plate and the hemoglobin release was determined in a SpectraMax iD3 reader (Molecular Devices) by absorption at 540 nm.
2.3.4 Microsomal stability assay […]
following previously reported procedures.7 Tested compound was preincubated at 37 °C in a phosphate buffer (pH 7.4), containing rat liver microsomes (Sigma-Aldrich, Germany), at the concentration of 0.4 mg/mL. After 10 min, NADPH-regenerating system was added to initiate the reaction. At appropriate time points (0, 30 and 60 min), reaction was quenched with ice-cold methanol, containing the internal standard pentoxiphylline. Next samples were centrifuged and the supernatant was subjected to UPLC-MS analysis. From slope of the line on plot Ln (%remaining of parent compounds) vs time, t1/2 was determined. Clint was calculated from […]
experiment was run in duplicate. The metabolized drug verapamil was used as positive control […]
provided by Molecular Discovery Ltd. (Hertfordshire, UK). A highest probability of metabolic sites and metabolite structures were analysed by liver computational model. 8 […]

SMILES: O=C(Nc1cccc(Cl)c1)NC1CCN(CCC(Oc2ccc(C(F)(F)F)cc2)c2cccs2)CC1 (stereo not shown) [Compound 25]
- Clin: 26.7
